Results: ChEMBL document CHEMBL6096640, “Discovery of novel thiosemicarbazone-acridine targeting butyrylcholinesterase with antioxidant, metal complexing and neuroprotector abilities as potential treatment of Alzheimer's disease: In vitro, in vivo, and in silico studies” (Eur J Med Chem, 2025)
Calls of active or inactive are those of the source. The rule behind the calls is not given here.

Tests used:
[1] = biological target: T1, Acetylcholinesterase (Electrophorus electricus, UniProt O42275)
Description: Inhibition of electric eel AChE using acetylthiocholine iodide as substrate preincubated for 10 mins followed by substrate addition by Ellman's method

[2] = biological target: Cholinesterase (Equus caballus) (UniProt P81908); assay: Inhibition of equine serum BChE using butyrylthiocholine iodide as substrate at 10 uM preincubated for 10 mins followed by substrate addition by Ellman's method relative to control
Chain of Cholinesterase (Equus caballus) (P81908 whole entry): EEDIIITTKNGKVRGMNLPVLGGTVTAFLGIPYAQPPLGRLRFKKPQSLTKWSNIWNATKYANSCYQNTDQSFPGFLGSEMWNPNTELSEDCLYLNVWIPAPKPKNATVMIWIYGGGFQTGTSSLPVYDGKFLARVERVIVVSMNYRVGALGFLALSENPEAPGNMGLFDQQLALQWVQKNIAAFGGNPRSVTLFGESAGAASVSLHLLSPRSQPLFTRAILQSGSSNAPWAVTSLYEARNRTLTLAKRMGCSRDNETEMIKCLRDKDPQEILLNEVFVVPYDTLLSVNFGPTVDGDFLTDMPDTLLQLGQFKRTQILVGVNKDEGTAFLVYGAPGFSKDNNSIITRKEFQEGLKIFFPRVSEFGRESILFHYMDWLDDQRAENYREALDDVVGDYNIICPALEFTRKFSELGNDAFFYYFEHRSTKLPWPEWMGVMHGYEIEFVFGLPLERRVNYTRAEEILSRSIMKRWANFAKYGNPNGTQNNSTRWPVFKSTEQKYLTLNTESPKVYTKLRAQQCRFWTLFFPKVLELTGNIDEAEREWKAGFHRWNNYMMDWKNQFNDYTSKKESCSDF

[3] = biological target: T2, Cholinesterase (Equus caballus, UniProt P81908)
T2 sequence (P81908 whole entry): as above
Description: Inhibition of equine serum BChE using butyrylthiocholine iodide as substrate preincubated for 10 mins followed by substrate addition by Ellman's method

[4] = Antioxidant activity of the compound assessed as DPPH radical scavenging activity at 100 uM incubated under light for 30 mins by spectrophotometric analysis relative to control; format: functional
[5] = in vitro; settings: human
Description: Neurotoxicity against human SH-SY5Y cells assessed as cell viability at 50 uM relative to control

[6] = Neurotoxicity against human SH-SY5Y cells assessed as reduction in cell viability at <= 50 uM; format: toxicity, cell-based
[7] = biological target: T2, Cholinesterase; assay: Non-competitive inhibition of equine serum BChE using butyrylthiocholine iodide as substrate preincubated for 10 mins followed by substrate addition by Lineweaver-Burk plot analysis
[8] = biological target: Acetylcholinesterase (Electrophorus electricus) (UniProt O42275); assay: Non-competitive inhibition of electric eel AChE using acetylthiocholine iodide as substrate assessed as decreased Vmax with constant Km by Ellman's method based Lineweaver-Burk plot analysis
Chain of Acetylcholinesterase (Electrophorus electricus) (O42275 24-633 limits assumed): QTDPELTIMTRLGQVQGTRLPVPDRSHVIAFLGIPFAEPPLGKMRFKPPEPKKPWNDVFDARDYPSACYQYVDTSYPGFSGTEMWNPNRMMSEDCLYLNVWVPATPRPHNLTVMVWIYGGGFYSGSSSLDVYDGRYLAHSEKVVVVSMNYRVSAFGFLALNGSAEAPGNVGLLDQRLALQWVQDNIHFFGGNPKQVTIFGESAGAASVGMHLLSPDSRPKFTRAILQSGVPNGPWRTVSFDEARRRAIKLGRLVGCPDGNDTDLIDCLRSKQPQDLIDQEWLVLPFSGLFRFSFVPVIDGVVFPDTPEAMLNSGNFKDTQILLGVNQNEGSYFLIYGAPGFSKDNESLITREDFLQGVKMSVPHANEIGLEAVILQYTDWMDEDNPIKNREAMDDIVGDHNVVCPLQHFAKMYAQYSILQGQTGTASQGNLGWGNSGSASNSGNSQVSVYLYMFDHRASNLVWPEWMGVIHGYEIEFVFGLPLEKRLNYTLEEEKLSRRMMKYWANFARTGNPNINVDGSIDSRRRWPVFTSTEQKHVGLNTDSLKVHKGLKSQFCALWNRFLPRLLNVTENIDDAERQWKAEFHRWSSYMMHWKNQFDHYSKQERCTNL

[9] = biological target: T2, Cholinesterase; assay: Competitive inhibition of equine serum BChE using butyrylthiocholine iodide as substrate preincubated for 10 mins followed by substrate addition by Lineweaver-Burk plot analysis
[10] = biological target: T1, Acetylcholinesterase; assay: Non-competitive inhibition of electric eel AChE using acetylthiocholine iodide as substrate preincubated for 10 mins followed by substrate addition by Lineweaver-Burk plot analysis
[11] = biological target: Acetylcholinesterase (Electrophorus electricus) (UniProt O42275); assay: Mixed-type inhibition of electric eel AchE using acetylthiocholine iodide as substrate assessed as decrease in Vmax with increase in Km preincubated for 10 mins followed by substrate addition by Lineweaver-Burk plot analysis
[12] = biological target: Cholinesterase (Equus caballus) (UniProt P81908); assay: Mixed-type inhibition of equine serum BChE using butyrylthiocholine iodide as substrate assessed as decrease in Vmax with increase in Km preincubated for 10 mins followed by substrate addition by Lineweaver-Burk plot analysis
[13] = biological target: T2, Cholinesterase; assay: Competitive inhibition of equine serum BChE using butyrylthiocholine iodide as substrate at 3 uM preincubated for 10 mins followed by substrate addition by Lineweaver-Burk plot analysis
[14] = biological target: T1, Acetylcholinesterase; assay: Competitive inhibition of electric eel AChE using acetylthiocholine iodide as substrate at 11 uM preincubated for 10 mins followed by substrate addition by Lineweaver-Burk plot analysis
[15] = Neurotoxicity against human SH-SY5Y cells assessed as cell viability at 12.5 to 50 uM relative to control; format: toxicity, cell-based; settings: dose 12.5-50 µM, read-out: Activity
[16] = tested on: Mus musculus; assay: Antialzheimer activity against scopolamine-induced amnesia Swiss mouse model assessed as number of crossings at 1 uM, icv by open field test; format: functional, organism-based
[17] = tested on: SH-SY5Y; assay: Neuroprotective activity against H2O2-induced cell death in human SH-SY5Y cells assessed as cell viability at 3.125 to 12.5 uM preincubated for 24 hrs followed by H2O2 addition and measured after 2 hrs by MTT assay; format: functional, cell-based; settings: dose 3.125-12.5 µM, time 26.0 hrs
[18] = Toxicity in Swiss mouse assessed as novel […] memory at 1 uM, icv by novel object recognition test; settings: in vivo, icv_or_intrathecal
[19] = tested on: Mus musculus; assay: Antialzheimer activity against scopolamine-induced amnesia Swiss mouse model assessed as sign of innate preference for objects at 1 uM, icv by novel object recognition test; format: functional, organism-based
[20] = tested on: Mus musculus; assay: Antialzheimer activity against scopolamine-induced amnesia Swiss mouse model assessed as increase in exploration time at 1 uM, icv by novel object recognition test; format: functional, organism-based
[21] = Antioxidant activity of the compound assessed as DPPH radical scavenging activity at 10 uM incubated under light for 30 mins by spectrophotometric analysis relative to control; format: functional
[22] = biological target: Acetylcholinesterase (Electrophorus electricus) (UniProt O42275); assay: Inhibition of electric eel AChE using acetylthiocholine iodide as substrate at 10 uM preincubated for 10 mins followed by substrate addition by Ellman's method relative to control

T1 sequence (O42275 whole entry): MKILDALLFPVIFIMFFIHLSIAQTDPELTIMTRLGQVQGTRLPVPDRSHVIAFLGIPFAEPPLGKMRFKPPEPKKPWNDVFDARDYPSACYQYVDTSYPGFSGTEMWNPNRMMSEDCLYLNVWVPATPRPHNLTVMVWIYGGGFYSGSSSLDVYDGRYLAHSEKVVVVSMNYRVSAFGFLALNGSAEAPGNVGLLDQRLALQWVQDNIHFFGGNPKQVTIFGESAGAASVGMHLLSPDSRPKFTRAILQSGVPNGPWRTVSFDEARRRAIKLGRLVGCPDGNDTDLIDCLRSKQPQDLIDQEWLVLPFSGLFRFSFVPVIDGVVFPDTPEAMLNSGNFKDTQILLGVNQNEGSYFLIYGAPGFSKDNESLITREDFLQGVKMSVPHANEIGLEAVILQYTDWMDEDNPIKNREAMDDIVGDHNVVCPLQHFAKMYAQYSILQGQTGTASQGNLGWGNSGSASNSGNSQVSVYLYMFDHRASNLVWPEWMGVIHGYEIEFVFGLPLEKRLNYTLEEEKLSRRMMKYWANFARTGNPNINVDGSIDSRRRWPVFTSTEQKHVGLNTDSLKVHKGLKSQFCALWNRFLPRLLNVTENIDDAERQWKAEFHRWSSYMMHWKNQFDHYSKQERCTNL

SMILES | IC50 [1] [µM] | inhibition [2] [%] | IC50 [3] [µM] | Activity [4] [%] | also measured
Oc1ccccc1/C=N/NC(=S)Nc1c2ccccc2nc2ccccc12 | 10.8 | 83 | 3.13 | 15.8 | 
COc1cc2c(cc1OC)C(=O)C(CC1CCN(Cc3ccccc3)CC1)C2 (stereo not drawn) [DONEPEZIL] |  |  |  |  | viability at 50 µM ([5]; sh-sy5y): 80%
O=[N+]([O-])c1ccc(/C=N/NC(=S)Nc2c3ccccc3nc3ccccc23)cc1 | 8.64 | 83 | 0.89 |  | Activity [6]: Non-toxic; Ki [7]: 0.53 µM; inhibition [8]: Active; Ki [9]: 0.2 µM; Ki [10]: 2.97 µM
S=C(N/N=C/c1ccccc1)Nc1c2c(nc3ccccc13)CCCC2 | 13.6 |  | 5.38 | 32.2 | Activity [11]: Active; Ki [7]: 3.63 µM; Activity [12]: Active; Ki [13]: 1.41 µM; Ki [10]: 9.82 µM; Ki [14]: 1.66 µM
Oc1cccc(/C=N/NC(=S)Nc2c3c(nc4ccccc24)CCCC3)c1 |  |  | 3.03 | 12.1 | 
S=C(N/N=C/c1cccs1)Nc1c2ccccc2nc2ccccc12 | 34.6 | 83 | 2.45 | 41.5 | 
COc1ccc(/C=N/NC(=S)Nc2c3ccccc3nc3ccccc23)cc1 | 6.2 | 83 | 1.04 |  | Activity [6]: Non-toxic
S=C(N/N=C/c1cccnc1)Nc1c2ccccc2nc2ccccc12 |  | 83 |  | 15.5 | 
S=C(N/N=C/c1ccc(Cl)cc1Cl)Nc1c2ccccc2nc2ccccc12 | 6.11 | 83 | 1.06 |  | Activity [6]: Non-toxic
S=C(N/N=C/c1c[nH]c2ccccc12)Nc1c2ccccc2nc2ccccc12 | 9.39 | 83 | 1.68 | 23.8 | 
S=C(N/N=C/c1ccc(Br)cc1)Nc1c2ccccc2nc2ccccc12 | 9.79 | 83 | 3.18 |  | 
Oc1ccc(/C=N/NC(=S)Nc2c3ccccc3nc3ccccc23)cc1 | 11.5 | 83 | 1.73 |  | 
Cc1[nH]c2ccccc2c1/C=N/NC(=S)Nc1c2ccccc2nc2ccccc12 | 8.57 | 83 | 2.01 | 61 | 
Fc1ccc(/C=N/NC(=S)Nc2c3ccccc3nc3ccccc23)cc1 | 12.8 | 83 | 1.35 | 44.3 | viability at 50 µM [15]: ≤ 70%
COc1ccc(/C=N/NC(=S)Nc2c3ccccc3nc3ccccc23)cc1O | 43.3 | 83 | 3.3 | 41.2 | 
S=C(N/N=C/c1ccco1)Nc1c2ccccc2nc2ccccc12 | 28 | 83 | 4.4 | 43.9 | 
S=C(N/N=C/c1ccc(Cl)cc1)Nc1c2ccccc2nc2ccccc12 | 10.1 | 83 | 2.19 |  | 
Cc1ccc(/C=N/NC(=S)Nc2c3ccccc3nc3ccccc23)cc1 | 2.78 | 83 | 1.54 |  | 
CC(C)(C)c1cc(/C=N/NC(=S)Nc2c3ccccc3nc3ccccc23)cc(C(C)(C)C)c1O | 10.5 | 83 | 1.15 | 69 | Activity [16]: inactive; viability at 50 µM ([5]; SH-SY5Y cells): 90%; Activity [17]: Active; Activity [18]: Toxic; Activity [19]: inactive; viability at 50 µM [15]: ≤ 70%; Activity [20]: Active
Cc1ccc(/C=N/NC(=S)Nc2c3ccccc3nc3ccccc23)c(O)c1 | 11.3 | 83 | 3.19 | 28.7 | 
Oc1cccc(/C=N/NC(=S)Nc2c3ccccc3nc3ccccc23)c1 | 22 | 83 | 2.28 |  | 
O=c1c(O)c(-c2ccc(O)c(O)c2)oc2cc(O)cc(O)c12 |  |  |  |  | Activity [21]: 51.7%
S=C(N/N=C/c1ccccc1)Nc1c2ccccc2nc2ccccc12 | 2.47 | 83 | 0.71 | 37.9 | Activity [6]: Non-toxic; inhibition [22]: 87%; Ki [7]: 1.68 µM; inhibition [8]: Active; Ki [9]: 0.72 µM; Ki [10]: 1.35 µM
CN(C)c1ccc(/C=N/NC(=S)Nc2c3ccccc3nc3ccccc23)cc1 | 7.6 | 83 | 1.77 |  | 
